Experimental data: ChEMBL document CHEMBL3808320, “1,4-Diphenalkylpiperidines: A new scaffold for the design of potent inhibitors of the vesicular monoamine transporter-2” (Bioorg Med Chem Lett, 2016)

Key:
[1] = target: T1, Synaptic vesicular amine transporter (Rattus norvegicus, UniProt Q01827); test: Displacement of [3H]DTBZ from VMAT2 in rat whole brain vesicles homogenate after 30 mins by liquid scintillation counting; assay type: tissue-based
[2] = target: T1, Synaptic vesicular amine transporter; test: Inhibition of [3H]DA uptake at VMAT2 in rat striata vesicles homogenate after 8 mins by liquid scintillation counting
[3] = target: Synaptic vesicular amine transporter (Rattus norvegicus) (UniProt Q01827); test: Potency index, ratio of lobelane Ki to compound Ki for VMAT2 in rat striata vesicles homogenate
Synaptic vesicular amine transporter (Rattus norvegicus), sequence (Q01827 whole entry): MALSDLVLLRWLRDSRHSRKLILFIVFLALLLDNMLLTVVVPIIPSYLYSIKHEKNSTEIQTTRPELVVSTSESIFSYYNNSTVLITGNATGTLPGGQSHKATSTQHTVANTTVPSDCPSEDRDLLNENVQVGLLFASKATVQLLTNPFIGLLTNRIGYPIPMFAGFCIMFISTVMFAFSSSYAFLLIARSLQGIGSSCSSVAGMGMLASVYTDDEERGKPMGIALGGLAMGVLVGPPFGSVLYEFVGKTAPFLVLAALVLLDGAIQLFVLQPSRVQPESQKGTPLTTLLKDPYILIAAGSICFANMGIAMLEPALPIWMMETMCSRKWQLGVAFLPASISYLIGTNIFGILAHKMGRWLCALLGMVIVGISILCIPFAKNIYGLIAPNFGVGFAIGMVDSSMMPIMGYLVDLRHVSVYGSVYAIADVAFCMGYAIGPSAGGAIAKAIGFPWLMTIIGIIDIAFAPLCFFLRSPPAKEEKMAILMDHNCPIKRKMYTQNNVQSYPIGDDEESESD

[4] = target: Synaptic vesicular amine transporter (Rattus norvegicus) (UniProt Q01827); test: Potency index, ratio of lobelane Ki to compound Ki for VMAT2 in rat whole brain vesicles homogenate

T1 sequence (Q01827 whole entry): as above

SMILES	Ki [1] [nM]	Ratio Ki [3]	further results
COc1cccc(CCN2CCC(CCc3ccccc3)CC2)c1	270		
COc1ccc(CCC2CCN(CCc3ccc(OC)cc3)CC2)cc1	2500		
COc1cccc(CCN2CCC(Cc3ccccc3)CC2)c1	1500		
c1ccc(CCC2CCN(CCc3ccccc3)CC2)cc1			Ki [2]: 120 nM
COc1ccccc1CCN1CCC(Cc2ccccc2)CC1	2800		
COc1ccc(CCN2CCC(Cc3ccccc3)CC2)cc1	1900		
COc1ccccc1CCC1CCN(CCc2ccccc2OC)CC1		4	Ratio Ki [4]: 5
COc1ccccc1CCC1CCN(CCc2ccc(F)cc2)CC1		4	
COc1cccc(CCN2CCC(CCc3ccccc3OC)CC2)c1		4	Ratio Ki [4]: 5
COc1ccccc1CCN1CCC(CCc2ccccc2)CC1	260		
